Measurements as given in patent US20120309704A1, “COMPOSITIONS FOR TREATMENT OF CHEMORESISTANT AND/OR POTENTIALLY CHEMORESISTANT LEUKAEMIAS” (priority 2009, published 2012).

Assays:
[1] = system: human leukaemic cells REH; assay: In vivo model of human leukaemia: REH cells inoculated into NOD/SCID mice
Procedure: FIG. 2. Effect of corticosteroids, inhibitors of hERG1 and of the combination corticosteroids/hERG1 inhibitors in an in vivo model of human leukaemia disease (human leukaemic cells REH inoculated into NOD/SCID mice). Cells were inoculated by injection into the caudal vein and seven days after the inoculum, animals were treated with E4031, Dexamethasone, Dexamethasone+E4031 for two weeks; control mice were treated, with the same schedule, solely with saline solution. At the end of the two weeks of treatment, animals were sacrificed and the spleen and bone marrow were removed. Bone marrow engraftment was evaluated by measuring the percentage of hCD45^+ cells versus mCD45^+ cells by flow cytometry. For the evaluation of apoptosis, the Tunel assay was performed on the histological sections of the treated animals.
In FIG. 2 the effects of corticosteroids, hERG1 inhibitors and combination of corticosteroids/hERG1 inhibitors in an in vivo model of human leukaemic disease (human leukaemic cells REH inoculated in NOD / SCID mice) is shown. The cells were inoculated by injection into the tail vein and seven days after injection, the animals were treated with E4031, dexamethasone, dexamethasone+E4031 for two weeks; the control mice were treated, according to the same protocol, only with saline.
At the end of two weeks of treatment the animals were sacrificed and the spleens and bone marrows were removed. The bone marrow engraftment was assessed by measuring the percentage of hCD45+cells versus mCD45+cells by flow cytometry. The Tunel assay for evaluation of apoptosis was performer on bone marrow histological sections from the control and treated animals.

[2] = system: ALL cell lines REH, RS4, 11 and 697 and primary ALL cells; assay: MSC-mediated chemoresistance of ALL cell lines and primary ALL cells; type: cell-based, human
Procedure: FIG. 4. hERG1 activity regulates the chemoresistance induced by stromal cells in leukaemic cells a). […] The percentage of Annexin V +/ PI− cells was evaluated after 48 hours of culture.
For cell counting, after 48 hours of incubation at 37° C. and 5% di CO2, cells were recovered from the plates. We next evaluated the apoptosis. During apoptosis, a series of changes of plasma membrane occurs, one of these alterations of plasma membrane is the shift of phosphatidylserine (PS) from the inner to the outer surface of the cell. The recognition of PS by macrophage allows them to engulf the apoptotic cell, preventing the inflammatory process. The analysis of PS on the plasma membrane of apoptotic cells is performed by using annexin V-fluorescein and propidium iodide (PI) assay (Annexin-V-Fluos Staining Kit, Roche).
We then identified three cell populations: i) viable cells (annexin V-/propidium iodide-), ii) apoptotic cells (early apoptosis) (annexin V+), and iii) cells in late apoptosis or necrotic (annexin V+/propidium iodide+). All the cell lines (697, RS, REH) were cultured in the absence and in the presence of human bone marrow stromal cells (MSC) in order to reproduce as closely as possible the condition that occurs in the bone marrow.
After 48 hours of incubation, cells were separated from the stroma and processed for the analysis of apotosis.

[3] = system: AML cell lines and primary samples; details: administration of hERG1 blockers; cited from earlier work
[4] = system: ALL(3), ALL(4), ALL(6) cells; assay: Annexin V/propidium iodide apoptosis of primary ALL cells cultured in the absence or presence of MSC; type: cell-based, human; details: FIG. 1C, co-culture with stromal cells
Procedure: The analysis is performed with the flow cytometer FACScan (Becton Dickinson). […] We next evaluated the apoptosis. […] The analysis of PS on the plasma membrane of apoptotic cells is performed by using annexin V-fluorescein and propidium iodide (PI) assay (Annexin-V-Fluos Staining Kit, Roche). The protocol of annexin requie, first, the preparation of the reaction mix, containing 20 μl of annexin and 20 μl of propidium iodide diluted in 1 ml of incubation buffer (1 ml of such mix is enough for 10 samples). About 10^6 cells are washed with PBS and centrifuged at 200 g for 5 minutes; the cell pellet is then resuspend in 100 μl of the solution previously described and incubated for 10-15 min at 15-25° C. The samples are resuspended in 500 μl of incubation buffer, before proceeding to flow cytometry analysis. […] After 48 hours of incubation, cells were separated from the stroma and processed for the analysis of apotosis.

In the case of `Cc1cccc(CCN2CCC(C(=O)c3ccc(NS(C)(=O)=O)cc3)CC2)n1.Cl.Cl` [E4031, N-[4-[[1-[2-(6-Methyl-2-pyridyl)ethyl]-4-piperidinyl]carbonyl]phenyl]metanesolfonammide dihydrochloride], the “effect on engraftment compared with dexamethasone alone” value [1] is reported as “higher than that produced by dexamethasone alone”, the “apoptosis of ALL cells in the bone marrow” value ([1]; Tunel assay) is reported as “increase” and the “engraftment in the bone marrow” value ([1]; treatment for two weeks starting seven days after inoculum, hCD45+ versus mCD45+ cells) is reported as “reduced”. The MSC mediated chemoresistance [2] was “overcome”.
In the case of `CN(CCN(C)S(=O)(=O)c1ccc(NS(C)(=O)=O)cc1)c1nc2ccccc2n1C.Cl` [Way 123,398, N-metil-N-(2-(metil(1-metil-1H-benzimidazol-2-il)amino)etil)((metilsolfonil)amino)benzensolfonammide HCl], the MSC mediated chemoresistance [2] is given as “overcome” and the cellular growth [3] is given as “impairs cellular growth”.
For `COc1cccc2c1C(=O)c1c(O)c3c(c(O)c1C2=O)C[C@@](O)(C(=O)CO)C[C@@H]3O[C@H]1C[C@H](N)[C@H](O)[C@H](C)O1` [doxorubicin], the “responsiveness of leukaemic cells co-cultured with stromal cells compared to leukaemic cells alone” value [4] was “significantly less responsive”.
For `CC[C@H]1OC(=O)[C@H](C)[C@@H](O[C@H]2C[C@@](C)(OC)[C@@H](O)[C@H](C)O2)[C@H](C)[C@@H](O[C@@H]2O[C@H](C)C[C@H](N(C)C)[C@H]2O)[C@](C)(O)C[C@@H](C)C(=O)[C@H](C)[C@@H](O)[C@]1(C)O` [erythromycin, 6-(4-dimethylamino-3-hydroxy-6-methyl-Ossan-2-yl) oxy-14-ethyl-7,12,13-triidrossi-4-(5-hydroxy-4 methoxy-4,6-dimethyl -Ossan-2-yl) oxy-3,5,7,9,11,13-esametil ossaciclotetradecan-1-2,10-dione], the MSC mediated chemoresistance [2] was “overcome”.
In the case of `O=C1NCCN1CCN1CCC(c2cn(-c3ccc(F)cc3)c3ccc(Cl)cc23)CC1` [sertindole, 1-(2-{4-[5-chloro-1-(4-FLUORO-PHENYL)-1H-indole-3-IL]-IL-1-Piperidine}-ethyl)-imidazolidin-2-ONE, 1-[2-[4-[5-Chloro-1-(4-fluorophenyl)-1H-indole-3-a]-1-piperidinyl]ethyl]-2-Imidazolidinone], the MSC mediated chemoresistance [2] is reported as “overcome”.
